Assay results as given in paper PMC11435220, “Anticancer Activity of Imidazolyl Gold(I/III) Compounds in Non-Small Cell Lung Cancer Cell Lines” (Pharmaceuticals, 2024).
Like-named read-outs stand apart in the source and are kept apart here.

Experiments:
[1] = system: H157; assay: MTT viability assay, H157; format: cell-based, human; settings: mean ± span, 48 h treatment, cell line with KRAS mutation
Method: (§1) NSCLC cell lines were obtained from the Hamon Center for Therapeutic Oncology Research (UT Southwestern Medical Center). IMR-90 human lung fibroblasts were from ATCC (CC-186). All cell lines were maintained and treated in RPMI medium (Cytiva (Shanghai, China), #SH30027), supplemented with 10% heat-inactivated FBS (Millipore Sigma (Darmstadt, Germany), F0394).
(§2) 5000–10,000 cells/0.1 mL/well were seeded in 96-well plates to achieve 70% confluence after 24 h. All drug stock solutions were prepared fresh in DMSO at a concentration of 10 mM. The day after cell plating, we added 0.1 mL of medium containing the appropriate drug dilutions. After 48 h of treatment, 10 μL of MTT solution (5 mg/mL) was added to each well. After 4 h incubation, the medium was aspirated, and the formazan salts dissolved in 200 μL DMSO/well for 10 min at 37 °C. The absorbance was read at 570 nm (OD 570 nm). Data are represented as mean ± SD of two independent experiments.
(§3) Statistical and data analysis was performed using GraphPad Prism (v10). IC50 values were calculated using a three-parameter non-linear regression model with log(inhibitor) vs. response. For the TxrR activity statistics, the groups were compared using a two-way ANOVA followed by Dunnett’s multiple comparisons with alpha = 0.05. The correlation between IC50 values and TxrR activity was achieved using Pearson correlation with alpha = 0.05.

[2] = system: H460; assay: MTT viability assay, H460; format: cell-based, human; settings: mean ± span, 48 h treatment, cell line with KRAS mutation
Method: as §1, §2, §3

[3] = system: H1792; assay: MTT viability assay, H1792; format: cell-based, human; settings: mean ± span, 48 h treatment, cell line with KRAS mutation
Method: as §1, §2, §3

[4] = system: TrxR in A549 cell lysates; assay: Thioredoxin reductase activity in lysates of treated A549 cells; format: cell-based, human; settings: for Mean Diff. TrxR activity vs. veh: A549 lysate, 24 h treatment at 5 μM
Method: The enzymatic activity of TrxR in the A549 and H522 cell lysates was measured using the TrxR assay Kit (Abcam ab83463) following the manufacturer’s instructions. This kit is based on the TxrR-mediated reduction of the colorless DTNB into TNB2—(yellow). Briefly, cells were plated to reach 70% confluence on a 100-mm dish in one day. They were treated with 5 μM of the gold compounds or the equivalent quantity of DMSO for 24 h. Then, cells were washed in PBS 1X, detached, and lysed in 100 μL of cold TrxR assay buffer supplemented with the Proteinase Inhibitor Cocktail. 20 μg and 40 μg of total proteins were used for the A549 and the H522, respectively. The DTNB substrate was added to samples with or without TrxR inhibitor (provided with the kit) in 96-well plates. The OD412 was measured soon after the substrate addition (A1) and then after 25, 60, 90, and 110 min (An) at 25 °C using a FLUOstar Omega Microplate Reader (BGM Labtech, Chicago, IL, USA). Data analysis was performed following the manufacturer’s instructions. The OD of TNB2, generated by TrxR in every condition, is:ΔA412 nm = (AnAB − AnINH) − (AB − A1INH) where AB is the assay buffer, and INH is the inhibitor. The TrxR activity is:(2) ΔB/Tn−T1×mg of protein lysate×sample dilution factor=(nmol/min)/mg=mU/mg where ΔB is the TNB amount calculated applying ΔA412 nm to TNB standard curve (in nmol), T1 is the time of the first reading (A1AB, and A1INH) (in min), Tn is the time of the second reading (AnAB and AnINH) (in min). The residual TxrR activity (%) was calculated by normalizing the TxrR activity for each compound with the matching vehicle values at every n time point.
as §3

[5] = target: T1, recombinant human DHFR (hDHFR) (Homo sapiens, UniProt P00374); assay: Cell-free human dihydrofolate reductase enzymatic activity; format: biochemical; settings: for effect on hDHFR enzymatic activity: H2F sub-saturating (~20 µM) and close to Km (~3 µM)
T1 construct: made in house; host or cells: E. coli BL21, plasmid pET17b (gift of C. Robert Matthews)
T1 sequence (P00374 1-187): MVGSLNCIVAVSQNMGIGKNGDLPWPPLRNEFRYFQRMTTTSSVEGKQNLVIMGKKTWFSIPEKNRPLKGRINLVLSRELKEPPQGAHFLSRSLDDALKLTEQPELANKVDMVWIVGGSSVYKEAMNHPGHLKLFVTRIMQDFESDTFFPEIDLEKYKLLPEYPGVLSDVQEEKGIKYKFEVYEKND
Method: Recombinant human DHFR was overexpressed and purified from pET17b (+) encoding the hDHFR gene/BL21 (Novagene® (Hong Kong, China)) E. coli cells as described in the literature. The protein purity was verified as a single band in Coomassie-stained SDS-PAGE. The concentration of the hDHFR was measured spectrophotometrically at 280 nm using the extinction coefficient of 28,400 M^−1 cm^−1 and resulted to be equal to 14 µM. The activity of the DHFR was followed by recording the absorbance over time at 340 nm in a UV-VIS spectrophotometer Shimadzu UV-2450. The procedure consisted of mixing the 50 mM Hepes buffer (pH 7.3) with saturating concentration NADPH ([…]) and […] hDHFR, incubating at 37 °C for 5 min, and starting the reaction by adding H2F at various concentrations. When testing the inhibition capacity of gold complexes, the reaction mixture was prepared by adding increasing concentrations of the tested compounds before the incubation at 37 °C. Since the gold complexes were solubilized in 100% methanol (HPLC-grade, Carlo Erba), the enzymatic activity of hDHFR was also assessed in the presence of the equal volumes of MeOH used in the assays with the gold complexes and eventually subtracted. Data are represented as mean ± SEM of 2 independent experiments and analyzed according to best-fit models using GraphPad Prism (v10).
For the data analysis of hDHFR enzymatic activity, the sigmoidal non-linear fitting model in the GraphPad Prism (v10) was used, in which the concentration of inhibitor was expressed as concentrations: Y = Bottom + (Top − Bottom)/(1 + (IC50/X)^HillSlope). Figures were partially prepared with BioRender (https://app.biorender.com) accessed on 25 July 2024).

| SMILES | IC50 [1] | IC50 [2] | IC50 [3] | Mean Diff. TrxR activity vs. veh ([4]; reading at 25 min) | Mean Diff. TrxR activity vs. veh ([4]; reading at 60 min) | Mean Diff. TrxR activity vs. veh ([4]; reading at 90 min) | Mean Diff. TrxR activity vs. veh ([4]; reading at 110 min) | magnitude of inhibition, hDHFR ([5]; H2F concentration 3.47 µM) | IC50 ([5]; H2F concentration 3.47 µM, read-out: hDHFR IC50) | magnitude of inhibition, hDHFR ([5]; H2F concentration 21.0 µM) | IC50 ([5]; H2F concentration 21.0 µM, read-out: hDHFR IC50) | effect on hDHFR enzymatic activity [5] | TrxR activity reduction / inhibition ([4]; A549, 24 h treatment, stated for both cell lines) | IC50 ([5]; H2F concentration 3.89 µM, sigmoidal fit, read-out: hDHFR IC50) | IC50 ([5]; H2F concentration 22.6 µM, sigmoidal fit, read-out: hDHFR IC50) | reduction of the enzymatic activity of hDHFR (conclusions) ([5]; dihydrofolate concentration comparable with the Km) | IC50 ([5]; dihydrofolate concentration comparable with the Km, read-out: hDHFR IC50 (conclusions)) |
| --- | --- | --- | --- | --- | --- | --- | --- | --- | --- | --- | --- | --- | --- | --- | --- | --- | --- |
| Clc1n[c]([Au-][P+](c2ccccc2)(c2ccccc2)c2ccccc2)n(Cc2ccccc2)c1Cl [Compound 7] | 8.5 ± 1.2 µM | 6.6 ± 1.02 µM | 12 ± 1.04 µM | −59.2% | −44.4% | −56.35% | −53.76% | ~ 50% | 10.9 ± 9.77 µM | ~ 50% | 23.6 ± 20.7 µM | very little effect on the enzymatic activity | – | – | – | – | – |
| Cn1cc[n+](C)[c]1[Au-2]([Cl])[P+](c1ccccc1)(c1ccccc1)c1ccccc1 [Compound 8] | 17 ± 1.2 µM | 13 ± 1.4 µM | 15 ± 1.1 µM | −86.87% | −80.79% | −82.25% | −82.25% | – | – | – | – | important inhibitory function | more than 80% | 15 ± 1.25 µM | 14.8 ± 1.25 µM | 80% | ~15 µM |
